Measured values taken from ChEMBL document CHEMBL3217536, “Structureactivity relationships of gramicidin S analogs containing (-3-pyridyl)-,-dehydroalanine residues on membrane permeability” (Medchemcomm, 2011).
Values after ≈ are worked out from the molar mass of the structure shown. Active and inactive are the calls of the source. The calls are words filed in the database; no cut-off is given here. *1 amine or outer side, *2 acyl side, *3 side chain or, on linkers, in order; H or OH if unused. Where a SMILES comes first, the peptide text is derived from it. [ ]: non-standard residue; d: D form. X1 = O=C(/C(=C/c1cccnc1)N[*:1])[*:2]; X2 = O=C(/C(=C/c1ccccc1)N[*:1])[*:2]; d3Pal = N[C@H](Cc1cccnc1)C(=O)O; Orn = NCCC[C@H](N)C(=O)O

Key:
Escherichia coli [1] = experiment: Induction of cytoplasmic membrane disruption in Escherichia coli K-12 W3110 assessed as change in potassium permeability after 30 mins; format: functional; settings: K-12 W3110, 0.5 h, read-out: ED50 (the source's name)
Staphylococcus aureus [2] = experiment: Induction of cytoplasmic membrane disruption in Staphylococcus aureus FDA 209P assessed as change in potassium permeability after 30 mins; format: functional; settings: for EC50: 0.5 h, read-out: ED50 (the source's name)
Staphylococcus aureus [3] = experiment: Antimicrobial activity against Staphylococcus aureus FDA 209P assessed as decrease in cell survival after 30 mins by colony counting method; format: functional; settings: 0.5 h
Escherichia coli [4] = experiment: Antimicrobial activity against Escherichia coli K-12 W3110 assessed as decrease in cell survival after 30 mins by colony counting method; format: functional; settings: K-12 W3110, 0.5 h
Staphylococcus aureus [5] = experiment: Antimicrobial activity against Staphylococcus aureus FDA 209P after 20 hrs by liquid microdilution method; format: functional
Escherichia coli [6] = experiment: Antimicrobial activity against Escherichia coli K-12 W3110 after 20 hrs by liquid microdilution method; format: functional; settings: K-12 W3110, 20 h
[7] = Hemolytic activity against human erythrocytes; format: ADME, cell-based, Erythrocyte; settings: read-out: ED50 (the source's name)
Escherichia coli [8] = experiment: Antimicrobial activity against Escherichia coli K-12 W3110 after 20 hrs by liquid microdilution method in presence of PMBN; format: functional

Structure (SMILES)	EC50 (Escherichia coli [1]) [µM]	EC50 (Staphylococcus aureus [2]) [µM]	LC50 (Staphylococcus aureus [3]) [µM]	LC50 (Escherichia coli [4]) [µM]	MIC (Staphylococcus aureus [5]) [µM]	MIC (Escherichia coli [6]) [µM]	HC50 [7] [µM]	Activity (Staphylococcus aureus [2])	MIC (Escherichia coli [8]; K-12 W3110, 20 h) [µg/mL]	Activity (Escherichia coli [8])
CC(C)C[C@@H]1NC(=O)[C@H](CCCN)NC(=O)[C@H](C(C)C)NC(=O)[C@@H]2CCCN2C(=O)[C@@H](Cc2cccnc2)NC(=O)[C@H](CC(C)C)NC(=O)[C@H](CCCN)NC(=O)[C@H](C(C)C)NC(=O)[C@@H]2CCCN2C(=O)[C@@H](Cc2cccnc2)NC1=O (cyclo(L[d3Pal]PV[Orn]L[d3Pal]PV[Orn]))	50	20	20	100	50 (≈ 57.2 µg/mL)	50 (≈ 57.2 µg/mL)	> 100	–	–	–
CC(C)C[C@@H]1NC(=O)[C@H](CCCN)NC(=O)[C@H](C(C)C)NC(=O)[C@@H]2CCCN2C(=O)[C@@H](Cc2ccccc2)NC(=O)[C@H](CC(C)C)NC(=O)[C@H](CCCN)NC(=O)[C@H](C(C)C)NC(=O)[C@@H]2CCCN2C(=O)[C@@H](Cc2ccccc2)NC1=O [GRAMICIDIN S] (cyclo(L[dF]PV[Orn]L[dF]PV[Orn]))	20	2	5	20	3 (≈ 3.42 µg/mL)	13 (≈ 14.8 µg/mL)	5	Dose-dependent effect	4	–
CC(C)C[C@@H]1NC(=O)[C@H](CCCN)NC(=O)[C@H](C(C)C)NC(=O)[C@@H]2CCCN2C(=O)/C(=C/c2ccccc2)NC(=O)[C@H](CC(C)C)NC(=O)[C@H](CCCN)NC(=O)[C@H](C(C)C)NC(=O)[C@@H]2CCCN2C(=O)/C(=C/c2cccnc2)NC1=O (cyclo(L[X2]PV[Orn]L[X1]PV[Orn]))	50	5	10	50	3 (≈ 3.42 µg/mL)	26 (≈ 29.6 µg/mL)	20	–	–	–
CC(C)C[C@@H]1NC(=O)[C@H](CCCN)NC(=O)[C@H](C(C)C)NC(=O)[C@@H]2CCCN2C(=O)/C(=C/c2cccnc2)NC(=O)[C@H](CC(C)C)NC(=O)[C@H](CCCN)NC(=O)[C@H](C(C)C)NC(=O)[C@@H]2CCCN2C(=O)/C(=C/c2cccnc2)NC1=O (cyclo(L[X1]PV[Orn]L[X1]PV[Orn]))	50	5	10	50	6 (≈ 6.84 µg/mL)	26 (≈ 29.6 µg/mL)	> 100	Dose-dependent effect	–	inactive
CC(C)C[C@@H]1NC(=O)[C@H](CCCN)NC(=O)[C@H](C(C)C)NC(=O)[C@@H]2CCCN2C(=O)[C@@H](Cc2ccc(O)cc2)NC(=O)[C@H](CC(C)C)NC(=O)[C@H](CCCN)NC(=O)[C@H](C(C)C)NC(=O)[C@@H]2CCCN2C(=O)[C@@H](Cc2ccc(O)cc2)NC1=O (cyclo(L[dY]PV[Orn]L[dY]PV[Orn]))	–	–	–	–	3 (≈ 3.52 µg/mL)	26 (≈ 30.5 µg/mL)	10	–	–	–
CC(C)C[C@@H]1NC(=O)[C@H](C)NC(=O)[C@H](C(C)C)NC(=O)[C@@H]2CCCN2C(=O)/C(=C/c2cccnc2)NC(=O)[C@H](CC(C)C)NC(=O)[C@H](C)NC(=O)[C@H](C(C)C)NC(=O)[C@@H]2CCCN2C(=O)/C(=C/c2cccnc2)NC1=O (cyclo(AL[X1]PVAL[X1]PV))	> 100	50	50	> 100	114 (≈ 120 µg/mL)	> 114	50	–	–	–
CC(C)C[C@@H]1NC(=O)[C@H](CCCN)NC(=O)[C@H](C(C)C)NC(=O)[C@@H]2CCCN2C(=O)/C(=C/c2ccccc2)NC(=O)[C@H](CC(C)C)NC(=O)[C@H](CCCN)NC(=O)[C@H](C(C)C)NC(=O)[C@@H]2CCCN2C(=O)/C(=C/c2ccccc2)NC1=O (cyclo(L[X2]PV[Orn]L[X2]PV[Orn]))	20	5	5	20	3 (≈ 3.41 µg/mL)	26 (≈ 29.6 µg/mL)	5	–	–	–
CO[C@@H]1[C@@H](OC(N)=O)[C@@H](O)[C@H](Oc2ccc3c(O)c(NC(=O)c4ccc(O)c(CC=C(C)C)c4)c(=O)oc3c2C)OC1(C)C	–	–	–	–	–	–	–	–	–	Active
CC(C)C[C@@H]1NC(=O)[C@H](C)NC(=O)[C@H](C(C)C)NC(=O)[C@@H]2CCCN2C(=O)/C(=C/c2cccnc2)NC(=O)[C@H](CC(C)C)NC(=O)[C@H](CCCN)NC(=O)[C@H](C(C)C)NC(=O)[C@@H]2CCCN2C(=O)/C(=C/c2cccnc2)NC1=O (cyclo(AL[X1]PV[Orn]L[X1]PV))	> 100	10	10	> 100	13 (≈ 14.3 µg/mL)	106 (≈ 116 µg/mL)	50	–	–	–
